Patent publication US7452951B2, “Multifunctional self-decontaminating surface coating” (priority 2004, dated 2008)

What was measured:
S. aureus (Gram+) = test: Minimum inhibitory concentration (MIC) study of quaternary ammonium biocides; assay type: cell-based, Staphylococcus aureus; settings: unit assumed
[1] = system: B. anthracis Sterne strain (Gram+); assay type: cell-based, Bacillus anthracis Sterne strain; settings: unit assumed
Escherichia coli (Gram−) = test: Minimum inhibitory concentration (MIC) study of quaternary ammonium biocides; assay type: cell-based; settings: unit assumed
[2] = system: Salmonella typhimurium (Gram−); test: as above; assay type: cell-based; settings: unit assumed
S. aureus = test: Tube dilution method with neutralizing agent to quench residual biocide activity; assay type: cell-based, Staphylococcus aureus; settings: starting cfu/mL 5.46 × 10^7; NG = no growth
E. coli = test: as above; assay type: cell-based, Escherichia coli; settings: starting cfu/mL 4.76 × 10^7; NG = no growth
B. anthracis Sterne = assay type: cell-based, Bacillus anthracis Sterne strain

| Structure (SMILES) | MIC S. aureus (Gram+) (S. aureus (Gram+)) [µg/mL] | MIC B. anthracis (Gram+) [1] [µg/mL] | MIC E. coli (Gram−) (Escherichia coli (Gram−)) [µg/mL] | MIC S. typhimurium (Gram−) [2] [µg/mL] | S. aureus count after biocide, tube dilution method (S. aureus) | E. Coli count after biocide, tube dilution method (E. coli) | B. anthracis S.S. count after biocide, tube dilution method (B. anthracis Sterne) |
| --- | --- | --- | --- | --- | --- | --- | --- |
| CCCCCC[N+](C)(C)CCOC.[Br-] [Entry 1, Hexyl-(2-methoxy-ethyl)-dimethyl-ammonium bromide] | 2.5 | 5 | 2.5 | 2.5 | – | – | – |
| CCCCCC[N+](C)(C)CCOCCOC.[Br-] [Entry 2, Hexyl-[2-(2-methoxy-ethoxy)-ethyl]-dimethyl-ammonium bromide] | > 5 | > 5 | 2.5 | > 5 | – | – | – |
| CCCCCC[N+](C)(C)CCOCCOCCOC.[Cl-] [Entry 3] | > 5 | 2.5 | 2.5 | > 5 | – | – | – |
| CCCCCC[N+](C)(C)CCOCCOCCOCCOC.[Cl-] [Entry 4] | 2.5 | 5 | 2.5 | 5 | – | – | – |
| CCCCCCCC[N+](C)(C)CCOC.[Cl-] [Entry 5] | 0.18 | < 0.312 | 0.625 | 2.5 | – | – | – |
| CCCCCCCC[N+](C)(C)CCOCCOC.[Cl-] [Entry 6] | 0.31 | 1.25 | 2.5 | 5 | – | – | – |
| CCCCCCCC[N+](C)(C)CCOCCOCCOC.[Cl-] [Entry 7] | 0.5 | 0.625 | 2.5 | 2.5 | – | – | – |
| CCCCCCCC[N+](C)(C)CCOCCOCCOCCOC.[Cl-] [Entry 8] | 0.8 | 0.312 | 1.25 | 2.5 | – | – | – |
| CCCCCCCC[N+](C)(C)CCOCCO.[Cl-] [Entry 9, Octyl-(2-(2-hydroxy-ethoxy)-ethyl)dimethylammonium chloride] | 1.25 | 1.25 | 5 | 5 | – | – | – |
| CCCCCC[N+](C)(C)CCOCCO.[Cl-] [Entry 10, Hexyl-(2-(2-hydroxy-ethoxy)-ethyl)dimethylammonium chloride] | > 5 | > 5 | 5 | > 5 | – | – | – |
| c1ccncc1 [Pyridinium] | – | – | – | – | 10^6 cfu/mL | 10^7 cfu/mL | 10^6 cfu/mL |
